Measurements as given in ChEMBL document CHEMBL1125709, “Substituent effect on the stereochemistry of H2-receptor antagonists of the phenylformamidine series. A conformation-dependent mode of interaction with the H2 receptor” (J Med Chem, 1991).

Biological target: Histamine H2 receptor (Cavia porcellus, UniProt P47747)
Test: Histamine H2 receptor antagonism on the right atrium of the guinea pig
Assay type: functional, tissue-based, Cardiac atrium
Details: read-out: pA2 (converted)

Histamine H2 receptor, sequence (P47747 whole entry): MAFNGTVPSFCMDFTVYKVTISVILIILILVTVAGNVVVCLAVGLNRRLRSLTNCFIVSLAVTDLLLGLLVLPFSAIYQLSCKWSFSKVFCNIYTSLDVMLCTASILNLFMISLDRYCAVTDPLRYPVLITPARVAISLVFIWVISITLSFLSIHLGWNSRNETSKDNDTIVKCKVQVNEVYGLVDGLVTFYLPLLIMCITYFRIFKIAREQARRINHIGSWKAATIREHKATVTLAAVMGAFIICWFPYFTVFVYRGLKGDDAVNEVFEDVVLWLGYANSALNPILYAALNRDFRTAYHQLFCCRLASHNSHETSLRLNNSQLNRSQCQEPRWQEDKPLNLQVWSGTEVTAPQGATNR

| Kb | SMILES |
| --- | --- |
| 42.7 nM | CC/N=C/Nc1ccc(-c2c[nH]cn2)cc1 |
| 5.25 nM | CC(C)CN/C=N/c1ccc(-c2c[nH]cn2)cc1 |
| 7.59 nM | CCC(C)(C)N/C=N/c1ccc(-c2c[nH]cn2)cc1 |
| 11.2 nM | CCCCN/C=N/c1ccc(-c2c[nH]cn2)cc1 |
| 31.6 nM | CCC(CC)N/C=N/c1ccc(-c2c[nH]cn2)cc1 |
| 28.2 nM | CC(C)/N=C/Nc1ccc(-c2c[nH]cn2)cc1 |
| 1200 nM | CN/C=N/c1ccc(-c2c[nH]cn2)cc1 |
| 14.1 nM | CCC(C)N/C=N/c1ccc(-c2c[nH]cn2)cc1 (centres undefined) |
| 11.2 nM | CC(C)(C)/N=C/Nc1ccc(-c2c[nH]cn2)cc1 |
